In the experiment the test system is Aβ42. Put plainly: Aβ42 production in H4 neuroglioma cells stably expressing human APP695 (Meso Scale Discovery electrochemiluminescence assay). The conditions noted are these: higher ratio = more specific inhibition of Aβ42 over Aβ total. The format is cell-based. The method, then: Cells were plated out to near confluency. The compounds to be tested were received as 10 mM stocks in 100% DMSO. A dilution series was initially generated in 100% DMSO and then diluted 200-fold in cell culture media such that the tested concentration range was 30 μM to 0.1 nM and the final DMSO concentration was 0.5%. The diluted compounds were incubated with the cells for 22 hours in an incubator at 37° C. and 5% CO2. Aβ42 as well as Aβ total levels were then measured post-incubation from the supernatant of the cells. Aβ42 levels were determined using a specific electrochemiluminescence assay provided by Meso Scale Discovery (Catalog #L21CA-1) according to the manufacturer's protocol. Aβ total levels were likewise determined using a specific electrochemiluminescence assay provided by Meso Scale Discovery (Catalog #L21ZA-1) according to the manufacturer's protocol.
In order to absolutely define the described compounds as modulators of γ-Secretase as opposed to simply inhibitors of γ-Secretase, measurements of not only Aβ42 but also Aβ total are performed.

Consider `COc1cc(Nc2ncc3c(n2)N(C)C2(CCOCC2)C(=O)N3C)ccc1-c1cnc(C)o1` [Example 1], for which the “Ratio Aβ(total)/Aβ42 (Aβ total IC50/Aβ42 IC50)” value (“Ratio Aβ(total)/Aβ42” for short) is on record as greater than 244.

`COc1cc(Nc2ncc3c(n2)N(C)C2(CCOCC2)C(=O)N3C)ccc1-n1cnc(C)c1` [Example 2]: the “Ratio Aβ(total)/Aβ42” value came to 89.

In the case of `Cc1ncc(-c2ccc(Nc3ncc4c(n3)N(C)C3(CCOCC3)C(=O)N4C)cn2)o1` [Example 3], the “Ratio Aβ(total)/Aβ42” value is given as greater than 6.

`Cc1ncc(-c2ccc(Nc3nc(C)c4c(n3)N(C)C3(CCOCC3)C(=O)N4C)cn2)o1` [Example 5]: the “Ratio Aβ(total)/Aβ42” value is reported as greater than 9.

With `COc1cc(Nc2ncc3c(n2)N(C)C2(CCOC2)C(=O)N3C)ccc1-n1cnc(C)c1` (stereo not shown) [Example 6], the “Ratio Aβ(total)/Aβ42” value was greater than 136.

As for `COc1cc(Nc2ncc3c(n2)N(C)C2(CCOC2)C(=O)N3C)ccc1-c1cnc(C)o1` (stereo not shown) [Example 7], the “Ratio Aβ(total)/Aβ42” value is given as greater than 315.

With `Cc1ncc(-c2ccc(Nc3ncc4c(n3)N(C)C3(CCOC3)C(=O)N4C)cn2)o1` (stereo not shown) [Example 8], the “Ratio Aβ(total)/Aβ42” value is given as greater than 10.

`COc1cc(Nc2ncc3c(n2)N(C)C2(CCOCC2)C(=O)N3)ccc1-n1cnc(C)c1` [Example 9]: the “Ratio Aβ(total)/Aβ42” value is reported as greater than 101.

As for `COc1cc(Nc2ncc3c(n2)N(C)C2(CCOC2)C(=O)N3)ccc1-n1cnc(C)c1` (stereo not shown) [Example 10], the “Ratio Aβ(total)/Aβ42” value is listed as 46.

For the compound `COCCN1C(=O)C2(CCOCC2)N(C)c2nc(Nc3ccc(-n4cnc(C)c4)c(OC)c3)ncc21` [Example 11], the “Ratio Aβ(total)/Aβ42” value was 26.

For the compound `COCCN1C(=O)C2(CCOCC2)N(C)c2nc(Nc3ccc(-c4ccnc(C)c4)cc3)ncc21` [Example 12], the “Ratio Aβ(total)/Aβ42” value is listed as 11.

For the compound `COCCN1C(=O)C2(CCOCC2)N(C)c2nc(Nc3ccc(-n4cnc(C)n4)c(OC)c3)ncc21` [Example 13], the “Ratio Aβ(total)/Aβ42” value is greater than 13.

Consider `COCCN1C(=O)C2(CCOC2)N(C)c2nc(Nc3ccc(-c4ccnc(C)c4)cc3)ncc21` (stereo not shown) [Example 14], for which the “Ratio Aβ(total)/Aβ42” value was greater than 27.

With `COCCN1C(=O)C2(CCOC2)N(C)c2nc(Nc3ccc(-n4cnc(C)n4)c(OC)c3)ncc21` (stereo not shown) [Example 15], the “Ratio Aβ(total)/Aβ42” value is listed as greater than 15.

As to `COCCN1C(=O)C2(CCOC2)N(C)c2nc(Nc3ccc(-n4cnc(C)c4)c(OC)c3)ncc21` (stereo not shown) [Example 16], the “Ratio Aβ(total)/Aβ42” value amounted to 88.

For `CCCN1C(=O)C2(CCOCC2)N(C)c2nc(Nc3ccc(-n4cnc(C)c4)c(OC)c3)ncc21` [Example 17], the “Ratio Aβ(total)/Aβ42” value amounted to 65.

Consider `Cc1cn(-c2ccc(Nc3ncc4c(n3)NC3(CCOC3)C(=O)N4C)cc2C#N)cn1` (stereo not shown) [Example 19], for which the “Ratio Aβ(total)/Aβ42” value was greater than 257.

As to `COc1cc(Nc2ncc3c(n2)NC2(CCOC2)C(=O)N3C)ccc1-n1cnc(C)c1` (stereo not shown) [Example 20], the “Ratio Aβ(total)/Aβ42” value was greater than 90.

Turning to `COc1cc(Nc2ncc3c(n2)NC2(CCOC2)C(=O)N3CC2CCOCC2)ccc1-n1cnc(C)c1` (stereo not shown) [Example 22], the “Ratio Aβ(total)/Aβ42” value is listed as greater than 9.

Regarding `COc1cc(Nc2ncc3c(n2)N(CC2CCOCC2)C2(CCOC2)C(=O)N3CC2CCOCC2)ccc1-n1cnc(C)c1` (stereo not shown) [Example 24], the “Ratio Aβ(total)/Aβ42” value is given as greater than 10.

For `COc1cc(Nc2ncc3c(n2)N(C)C2(COCCOC2)C(=O)N3)ccc1-n1cnc(C)c1` [Example 25], the “Ratio Aβ(total)/Aβ42” value was determined as 91.

For the compound `COc1cc(Nc2ncc3c(n2)N(C)C2(CCOC2)C(=O)N3CC2CCOCC2)ccc1-n1cnc(C)c1` (stereo not shown) [Example 26], the “Ratio Aβ(total)/Aβ42” value came to 46.

Consider `COc1cc(Nc2ncc3c(n2)N(C)C2(COCCOC2)C(=O)N3C)ccc1-n1cnc(C)c1` [Example 27], for which the “Ratio Aβ(total)/Aβ42” value is greater than 112.

As to `COc1cc(Nc2ncc3c(n2)NC2(CCOC2)C(=O)N3C2COC2)ccc1-n1cnc(C)c1` (stereo not shown) [Example 28], the “Ratio Aβ(total)/Aβ42” value was greater than 3.

Turning to `COc1cc(Nc2ncc3c(n2)NC2(CCOC2)C(=O)N3CCC(C)C)ccc1-n1cnc(C)c1` (stereo not shown) [Example 29], the “Ratio Aβ(total)/Aβ42” value came out at 39.

Take `COCCN1c2nc(Nc3ccc(-n4cnc(C)c4)c(OC)c3)nc(CC(C)C)c2N(C)C(=O)C12CCOC2` (stereo not shown) [Example 30]: the “Ratio Aβ(total)/Aβ42” value amounted to 96.

As for `COCCN1c2nc(Nc3ccc(-c4cnc(C)o4)c(OC)c3)nc(CC(C)C)c2N(C)C(=O)C12CCOC2` (stereo not shown) [Example 31], the “Ratio Aβ(total)/Aβ42” value came out at 47.

`CCc1nc(Nc2ccc(-n3cnc(C)c3)c(C#N)c2)nc2c1N(C)C(=O)C1(CCOC1)N2C` (stereo not shown) [Example 35]: the “Ratio Aβ(total)/Aβ42” value is on record as 180.

Consider `Cc1ncc(-c2ccc(Nc3ncc4c(n3)N(C)C3(CCc5ccccc5C3)C(=O)N4C)cn2)o1` (stereo not shown) [Example 37], for which the “Ratio Aβ(total)/Aβ42” value amounted to 29.

`COc1cc(Nc2ncc3c(n2)N(C)C2(CCOCC2)C(=O)N3C2CC2)ccc1-n1cnc(C)c1` [Example 37b]: the “Ratio Aβ(total)/Aβ42” value turned out to be 47.

Take `COc1cc(Nc2ncc3c(n2)N(C)C2(CCOCC2)C(=O)N3c2cc(F)cc(F)c2)ccc1-n1cnc(C)c1` [Example 37c]: the “Ratio Aβ(total)/Aβ42” value worked out at 75.

In the case of `COc1cc(Nc2nc3c(c(C(F)(F)F)n2)N(C)C(=O)C2(CCOCC2)N3C)ccc1-n1cnc(C)c1` [Example 37d], the “Ratio Aβ(total)/Aβ42” value is greater than 36.

Turning to `COc1cc(Nc2ncc3c(n2)N(C)C2(CCOC2)C(=O)N3CC(F)(F)F)ccc1-n1cnc(C)c1` (stereo not shown) [Example 37e], the “Ratio Aβ(total)/Aβ42” value came to 82.

For `COc1cc(Nc2ncc3c(n2)N(C)C2(CCOCC2)C(=O)N3c2ccc(F)cc2)ccc1-n1cnc(C)c1` [Example 37f], the “Ratio Aβ(total)/Aβ42” value is 55.

Take `COc1cc(Nc2ncc3c(n2)N(C)C2(CCOC2)C(=O)N3C2CC2)ccc1-n1cnc(C)c1` (stereo not shown) [Example 37g]: the “Ratio Aβ(total)/Aβ42” value came out at 58.

For `COc1cc(Nc2ncc3c(n2)N(C)C2(CCOC2)C(=O)N3CC(F)F)ccc1-n1cnc(C)c1` (stereo not shown) [Example 37h], the “Ratio Aβ(total)/Aβ42” value is 85.

`CCc1nc(Nc2cnc(-n3cnc(C)c3)c(OC)c2)nc2c1N(C)C(=O)C1(CC1)N2C` [Example 37i]: the “Ratio Aβ(total)/Aβ42” value is given as 54.

For the compound `COc1cc(Nc2ncc3c(n2)N(C)C2(CCOCC2)C(=O)N3Cc2ccc(F)cc2F)ccc1-n1cnc(C)c1` [Example 37j], the “Ratio Aβ(total)/Aβ42” value came to 57.

In the case of `COc1cc(Nc2ncc3c(n2)N(C)C2(CCOC2)C(=O)N3C(C)c2ccccn2)ccc1-n1cnc(C)c1` (stereo not shown) [Example 37k], the “Ratio Aβ(total)/Aβ42” value was determined as 88.

`COc1cc(Nc2ncc3c(n2)N(C2CCCC2)C2(CC2)C(=O)N3C)ccc1-n1cnc(C)c1` [Example 38]: the “Ratio Aβ(total)/Aβ42” value was greater than 15.

For `COc1cc(Nc2ncc3c(n2)N(C)C2(CCCCOC2)C(=O)N3C)ccc1-n1cnc(C)c1` (stereo not shown) [Example 39], the “Ratio Aβ(total)/Aβ42” value amounted to 91.

Regarding `COc1cc(Nc2nc3c(c(C(C)(C)O)n2)N(C)C(=O)C2(CCOC2)N3C)ccc1-c1cnc(C)o1` (stereo not shown) [Example 40], the “Ratio Aβ(total)/Aβ42” value is recorded as greater than 62.

As for `COc1cc(Nc2ncc3c(n2)N(C)C2(COC2)C(=O)N3C)ccc1-n1cnc(C)c1` [Example 41], the “Ratio Aβ(total)/Aβ42” value is greater than 25.

In the case of `COc1cc(Nc2ncc3c(n2)N(C)C2(CCCOCC2)C(=O)N3C)ccc1-n1cnc(C)c1` (stereo not shown) [Example 42], the “Ratio Aβ(total)/Aβ42” value worked out at 51.

On to `COc1cc(Nc2ncc3c(n2)N(C)C2(CC2)C(=O)N3CC(F)(F)F)ccc1-n1cnc(C)c1` [Example 44], for which the “Ratio Aβ(total)/Aβ42” value is 50.

As for `COc1cc(Nc2ncc3c(n2)N(C)C2(CCC2)C(=O)N3CC(F)(F)F)ccc1-c1cnc(C)o1` [Example 45], the “Ratio Aβ(total)/Aβ42” value was greater than 517.

For `COc1cc(Nc2ncc3c(n2)N(C)C2(CC2)C(=O)N3c2ccc(F)cc2)ccc1-n1cnc(C)c1` [Example 46], the “Ratio Aβ(total)/Aβ42” value is listed as greater than 306.

Regarding `COc1cc(Nc2ncc3c(n2)N(C)C2(CC2)C(=O)N3C2COC2)ccc1-n1cnc(C)c1` [Example 47], the “Ratio Aβ(total)/Aβ42” value turned out to be 98.

Take `COc1cc(Nc2ncc3c(n2)N(C)C2(CCOC2)C(=O)N3c2ccc(C(F)(F)F)cn2)ccc1-n1cnc(C)c1` (stereo not shown) [Example 48]: the “Ratio Aβ(total)/Aβ42” value is reported as 22.

As for `COc1cc(Nc2ncc3c(n2)N(C)C2(CC4CCC2C4)C(=O)N3C)cnc1-n1cnc(C)c1` (stereo not shown) [Example 49], the “Ratio Aβ(total)/Aβ42” value is on record as 69.

Take `COc1cc(Nc2ncc3c(n2)N(C)C2(CC2)C(=O)N3CC(F)(F)F)cnc1-n1cnc(C)c1` [Example 50]: the “Ratio Aβ(total)/Aβ42” value was greater than 147.

`COc1cc(Nc2ncc3c(n2)N(C)C2(CC2)C(=O)N3CC(F)F)ccc1-n1cnc(C)c1` [Example 52]: the “Ratio Aβ(total)/Aβ42” value came out at 61.
